Common to all, as to assay: NCI anticancer screen, dose series, 48 h
Experiment [1] deals with CCRF-CEM leukemia.
Experiment [2] relates to LOX IMVI melanoma.
Experiment [3] deals with HOP-92 NSCLC.
Experiment [4] relates to DMS 114 small cell lung.
Experiment [5] deals with HT29 colon.
Experiment [6] concerns SN12C renal.
For experiment [7], the system named is KM12 colon.
Experiment [8] has as its system 786-0 renal.
Experiment [9] relates to SNB-78 CNS.
The subject of experiment [10] is SK-MEL-5 melanoma.

Here are results for 11 compounds from PubChem BioAssay (NCI).

Molecules are shown by their SMILES. “And” between values parts separate entries of the source, which are not always exact repeats. Equal values may be shown once.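 Compound exposure: 48 hours, 5 concentrations, 96-well plates. GI50 marks 50% less growth. TGI denotes the concentration required for complete inhibition of growth.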 A value given as a limit tells only on which side of the number the result lay.

`COC(=O)Cc1cc(=O)oc2c1C(=O)CCC2`: the TGI in [1], in [2], in experiment [3], in experiment [4], in experiment [5] and in experiment [6] was greater than 100 µM in each case. The TGI in experiment [7], in [8], in experiment [9] and in [10] was greater than 100 µM throughout.

Regarding `CCOC(=O)C(=Cc1c(-c2ccccc2)[nH]c2ccccc12)C(=O)OCC`, the GI50 is 2.58 µM in experiment [1]; 5.58 µM in experiment [2]; 5.47 µM in experiment [3]; 4.56 µM in [5]; 5.04 µM in [6]; 3.51 µM in experiment [7]. Further, the GI50 in experiment [8] is 11.7 µM; in experiment [10], 3.81 µM. The TGI in experiment [1] was 9.75 µM; in experiment [2], 19.4 µM; in experiment [3], greater than 29.8 µM; in [5], 17.1 µM; in experiment [6], 55 µM; in [7], 12 µM. Besides, the values for the TGI in [8] and in experiment [10] were 37.2 µM and 14.2 µM, respectively.

Turning to `CC(C)c1ccc2c(c1)c(SC(C)(C)C)c(CC(C)(C)C(=O)O)n2Cc1ccc(Cl)cc1`, the GI50 in [1] is 4.27 µM; in experiment [2], 10.9 µM; in [3], 7.49 µM; in [5], 5.75 µM; in experiment [6], 12.2 µM; in experiment [7], 10.2 µM. For the same compound, the GI50 in experiment [8] is 11.1 µM; in experiment [10] it was 9.53 µM. The TGI in experiment [1] stood at 29.1 µM; in experiment [2], 24.7 µM; in experiment [3], 22.5 µM; in experiment [5] it was 16.9 µM; in [6] it was 25.3 µM; in experiment [7], 26.3 µM. The TGI in [8] was determined as 27.7 µM; in experiment [10], 22.4 µM.

Turning to `COc1ccc(-c2nn3ncccc3c2-c2ccnc(Nc3cccc(C(F)(F)F)c3)n2)cc1`, the GI50 in experiment [1] is 6.73 µM; in experiment [2], 6.53 µM; in experiment [3] it was 3.03 µM; in experiment [5], 7.56 µM; in [6] it was 8.03 µM; in [7], 9.33 µM. Further, the results for the GI50 in [8] and in experiment [10] were 9.98 µM and 5.27 µM, respectively. The TGI in experiment [1] was greater than 25 µM; in experiment [2], greater than 25 µM; in experiment [3] it was 16.1 µM; in [5], greater than 25 µM; in experiment [6] it was greater than 25 µM; in experiment [7], greater than 25 µM. The TGI was greater than 25 µM in experiment [8] and 14.5 µM in [10].

For `COc1ccc2c(c1)c(-c1cc(-c3cn(C)c4ccc(OC)cc34)[nH]n1)cn2C`, the GI50 in [1] was greater than 100 µM; in experiment [2], greater than 100 µM; in [3], 60.7 µM; in experiment [5], greater than 100 µM; in [6], greater than 100 µM; in [7] it was greater than 100 µM. Also, the GI50 in experiment [8] and in [10] was greater than 100 µM each time. Moreover, the TGI in [1], in experiment [2], in experiment [3], in experiment [5], in experiment [6] and in [7] was greater than 100 µM throughout. The TGI in [8] and in [10] was greater than 100 µM throughout.

As to `CCOc1ccccc1NC(=O)CCC(=O)NN`, the TGI in [1], in experiment [2], in experiment [3], in experiment [5], in experiment [6] and in experiment [7] was greater than 100 µM throughout. In addition, the TGI in [8], in experiment [9] and in experiment [10] was greater than 100 µM throughout.

For `Fc1ccc(-c2cc(-c3cn[nH]c3-c3ccccn3)ccn2)cc1`, the GI50 in experiment [1] was greater than 25 µM; in experiment [2] it was greater than 25 µM; in [3] it was 24.6 µM; in experiment [5], greater than 25 µM; in experiment [6], greater than 25 µM; in experiment [7], greater than 25 µM. Further, the GI50 was greater than 22.6 µM in experiment [8] and greater than 25 µM in experiment [10]. In addition, the TGI in experiment [1], in [2], in experiment [3], in experiment [5], in [6] and in experiment [7] was greater than 25 µM each time. In addition, the TGI in [8] and in experiment [10] was greater than 25 µM in each case.

As for `C=C[C@@]1(C)CC(=O)[C@]2(O)[C@@]3(C)[C@@H](O)CCC(C)(C)[C@@H]3[C@H](O)[C@@H](OC(C)=O)[C@@]2(C)O1`, the TGI in experiment [1], in [2], in experiment [3], in experiment [5], in experiment [6] and in experiment [7] was greater than 100 µM in each case. In addition, the TGI in [8] and in [10] was greater than 100 µM throughout.

On to `O=C(/C(=N/Nc1cn[nH]c(=O)c1Cl)c1ccccc1)c1ccccc1`, for which the TGI in experiment [1] is greater than 100 µM; in experiment [2], 66.9 µM; in [3] it was greater than 100 µM; in experiment [5], 59.1 µM; in experiment [6] it was greater than 100 µM; in experiment [7] it was 32.9 µM. The TGI in experiment [8] was 68.7 µM; in [10], greater than 100 µM.

With `Oc1cccc(-c2nc(N3CCOCC3)c3oc4ncccc4c3n2)c1`, the GI50 in [1] was 0.517 µM and 0.461 µM; in experiment [2], 0.158 µM and 0.151 µM; in experiment [3], 0.0237 µM and 0.0243 µM; in [5] it was 6.52 µM and 8.37 µM; in experiment [6], 0.0923 µM and 0.136 µM; in [7] it was 0.286 µM and 0.297 µM. Besides, the GI50 in experiment [8] was 0.231 µM and 0.246 µM; in experiment [10], 0.263 µM and 0.346 µM. For the same compound, the TGI in [1] is greater than 100 µM; in experiment [2] it was 2.33 µM and 3.02 µM; in experiment [3], 0.131 µM and 0.216 µM; in experiment [5], greater than 100 µM; in [6] it was greater than 100 µM; in [7] it was greater than 100 µM. Moreover, the TGI in [8] is 1.67 µM and 1.28 µM; in [10] it was 1.2 µM and 2.44 µM.

Regarding `NC(=O)c1ncn(C2OC(CO)C(O)C2O)c1NC(=S)NC(=O)c1ccccc1` (stereo unspecified), the TGI in [1], in experiment [2], in [3], in experiment [4], in experiment [5] and in experiment [6] was greater than 100 µM each time. The TGI in [7], in [8], in [9] and in experiment [10] was greater than 100 µM each time.
